# Results reported in US9932340B2, “Substituted indoles” (AbbVie Inc., priority 2014, dated 2018).
# Target: SUV420H1 enzyme (Homo sapiens, UniProt Q4FZB7)
# Assay: TR-FRET SAH SUV420H1 enzyme inhibition assay
# Format: biochemical
# Conditions: Histone Peptide H4(8-30)me1 and SAM, overnight at room temp, TR-FRET detection of SAH, read-out: TR-FRET SAH_SUV420H1 IC50
# Method: Test compounds were dispensed by a Labcyte Echo in 384-well low volume assay plates with 3-fold serial dilutions from 50 μM to 0.00075 μM. 5 μL of SUV420H1 enzyme (Abbvie) at 90 nM was added to all wells except the no enzyme control wells, and incubated for 30 minutes at room temp before 5 μL of Histone Peptide H4(8-30)me1 (Anaspec) at 5 nM and SAM at 4 nM was added to all wells. The plates were incubated in a humidified chamber overnight at room temp and then 10 μL of the detection reagent that contained RIPA buffer (50 mM Tris-HCl, pH 8.0, 150 mM sodium chloride, 1.0% Igepal CA-630 (NP-40), 0.5% sodium deoxycholate and 0.1% sodium dodecyl sulfate) (Sigma) with 2 nM of Terbium chelate anti S-adenosyl-L-homocysteine (SAH) (Abbvie) antibody and Oregon Green labeled SAH at 4 nM was added. The plates were further incubated for 4 hours at room temperature. The plates were read in a Perkin Elmer Envision using a TR-FRET protocol with Excitation set at 335 nm and Emission at 520 and 495 nm. To generate dose response curves the data is normalized to percent inhibition by setting the average of the plus and minus enzyme control wells to 0% and 100% inhibition respectively. The IC50 values for the compounds are generated by fitting the normalized data with Accelrys Assay Explorer 3.3 to a sigmoidal curve model using […] regression, Y=(100*x^n)/(K^n+x^n), where Y is the measured response, x is the compound concentration, n is the Hill Slope and K is the IC50 and the lower and higher asymptotes are constrained to 0 and 100 respectively.
# SUV420H1 enzyme, sequence (Q4FZB7 whole entry): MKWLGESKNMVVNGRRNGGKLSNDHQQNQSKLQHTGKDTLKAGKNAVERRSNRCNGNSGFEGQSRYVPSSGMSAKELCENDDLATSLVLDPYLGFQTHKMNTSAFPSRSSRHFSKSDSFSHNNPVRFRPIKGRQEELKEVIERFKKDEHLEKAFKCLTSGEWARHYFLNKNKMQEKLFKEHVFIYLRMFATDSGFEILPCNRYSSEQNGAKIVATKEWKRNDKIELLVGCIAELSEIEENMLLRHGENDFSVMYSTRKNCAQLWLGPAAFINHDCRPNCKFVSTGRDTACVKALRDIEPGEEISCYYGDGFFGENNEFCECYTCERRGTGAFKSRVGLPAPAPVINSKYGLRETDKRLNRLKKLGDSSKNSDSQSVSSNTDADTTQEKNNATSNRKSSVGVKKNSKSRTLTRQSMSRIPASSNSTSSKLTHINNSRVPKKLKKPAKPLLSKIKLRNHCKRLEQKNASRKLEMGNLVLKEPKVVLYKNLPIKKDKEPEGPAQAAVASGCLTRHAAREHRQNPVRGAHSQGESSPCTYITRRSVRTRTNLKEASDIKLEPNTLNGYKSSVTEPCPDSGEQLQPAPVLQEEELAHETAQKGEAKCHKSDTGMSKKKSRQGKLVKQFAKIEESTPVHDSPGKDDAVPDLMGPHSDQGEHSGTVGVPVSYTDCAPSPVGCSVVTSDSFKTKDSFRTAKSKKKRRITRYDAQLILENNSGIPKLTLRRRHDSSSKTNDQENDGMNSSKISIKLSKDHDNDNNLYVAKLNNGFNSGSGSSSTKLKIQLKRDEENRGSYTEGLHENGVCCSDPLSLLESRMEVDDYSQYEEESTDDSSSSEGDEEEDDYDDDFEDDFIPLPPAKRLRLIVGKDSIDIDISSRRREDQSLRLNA
row,Molecule,IC50 [nM]
1,"4-(aminomethyl)-N-({7-[(6-amino-9H-purin-9-yl)methyl]-5-(4,4-difluorocyclohexyl)-1H-indol-2-yl}methyl)-2-methylbenzamide [Example 301]",750
2,"4-{[({7-[(6-amino-9H-purin-9-yl)methyl]-5-chloro-1H-indol-2-yl}methyl)amino]methyl}-N,N-dimethylbenzamide [Example 318]",3490
3,"Nc1ncnc2c1ncn2Cc1cccc2c(Br)c[nH]c12 [Example 1, 9-[(3-bromo-1H-indol-7-yl)methyl]-9H-purin-6-amine]",> 50000
4,"CNC(=O)CCc1c[nH]c2c(Cn3cnc4c(N)ncnc43)cccc12 [Example 2, 3-{7-[(6-amino-9H-purin-9-yl)methyl]-1H-indol-3-yl}-N-methylpropanamide]",36900
5,"CN(C)C(=O)CCc1c[nH]c2c(Cn3cnc4c(N)ncnc43)cccc12 [Example 3, 3-{7-[(6-amino-9H-purin-9-yl)methyl]-1H-indol-3-yl}-N,N-dimethylpropanamide]",35000
6,"Cc1nc(N)c2ncn(Cc3cccc4cc[nH]c34)c2n1 [Example 4, 9-(1H-indol-7-ylmethyl)-2-methyl-9H-purin-6-amine]",14100
7,"Nc1ncnc2c1ncn2Cc1cccc2cc[nH]c12 [Example 5, 9-(1H-indol-7-ylmethyl)-9H-purin-6-amine]",13900
8,"Nc1nc(C2CC2)nc2c1ncn2Cc1cccc2cc[nH]c12 [Example 6, 2-cyclopropyl-9-(1H-indol-7-ylmethyl)-9H-purin-6-amine]",1460
9,"Nc1ncnc2c1ncn2Cc1cc(Cl)cc2cc(CO)[nH]c12 [Example 7, {7-[(6-amino-9H-purin-9-yl)methyl]-5-chloro-1H-indol-2-yl}methanol]",22200
10,"NCc1cc2cccc(Cn3cnc4c(N)ncnc43)c2[nH]1 [Example 8, 9-{[2-(aminomethyl)-1H-indol-7-yl]methyl}-9H-purin-6-amine]",2820
11,"NCc1cc2cc(Cl)cc(Cn3cnc4c(N)ncnc43)c2[nH]1 [Example 9, 9-{[2-(aminomethyl)-5-chloro-1H-indol-7-yl]methyl}-9H-purin-6-amine]",1170
12,"C=Cc1cc(Cn2cnc3c(N)ncnc32)c2[nH]c(CN)cc2c1 [Example 10, 9-{[2-(aminomethyl)-5-ethenyl-1H-indol-7-yl]methyl}-9H-purin-6-amine]",1870
13,"NCc1cc2cc(C3=CCCC3)cc(Cn3cnc4c(N)ncnc43)c2[nH]1 [Example 11, 9-{[2-(aminomethyl)-5-(cyclopent-1-en-1-yl)-1H-indol-7-yl]methyl}-9H-purin-6-amine]",178
14,"NCc1cc2cc(C3=CCOCC3)cc(Cn3cnc4c(N)ncnc43)c2[nH]1 [Example 12, 9-{[2-(aminomethyl)-5-(3,6-dihydro-2H-pyran-4-yl)-1H-indol-7-yl]methyl}-9H-purin-6-amine]",334
15,"NCc1cc2cc(C3=CCNCC3)cc(Cn3cnc4c(N)ncnc43)c2[nH]1 [Example 13, 9-{[2-(aminomethyl)-5-(1,2,3,6-tetrahydropyridin-4-yl)-1H-indol-7-yl]methyl}-9H-purin-6-amine]",135
16,"NCc1cc2cc(C3=CCC(F)(F)CC3)cc(Cn3cnc4c(N)ncnc43)c2[nH]1 [Example 14, 9-{[2-(aminomethyl)-5-(4,4-difluorocyclohex-1-en-1-yl)-1H-indol-7-yl]methyl}-9H-purin-6-amine]",186
17,"CC(=O)N1CC=C(c2cc(Cn3cnc4c(N)ncnc43)c3[nH]c(CN)cc3c2)CC1 [Example 15, 1-[4-{2-(aminomethyl)-7-[(6-amino-9H-purin-9-yl)methyl]-1H-indol-5-yl}-3,6-dihydropyridin-1(2H)-yl]ethanone]",154
18,"CC(=O)N1CCC=C(c2cc(Cn3cnc4c(N)ncnc43)c3[nH]c(CN)cc3c2)C1 [Example 16, 1-[5-{2-(aminomethyl)-7-[(6-amino-9H-purin-9-yl)methyl]-1H-indol-5-yl}-3,6-dihydropyridin-1(2H)-yl]ethanone]",440
19,"CC(=O)N1CCC(c2cc(Cn3cnc4c(N)ncnc43)c3[nH]c(CN)cc3c2)CC1 [Example 17, 1-(4-{2-(aminomethyl)-7-[(6-amino-9H-purin-9-yl)methyl]-1H-indol-5-yl}piperidin-1-yl)ethanone]",635

row,Molecule,IC50 [nM]
1,"Cn1cc(-c2cc(Cn3cnc4c(N)ncnc43)c3[nH]c(CN)cc3c2)cn1 [Example 18, 9-{[2-(aminomethyl)-5-(1-methyl-1H-pyrazol-4-yl)-1H-indol-7-yl]methyl}-9H-purin-6-amine]",561
2,"NCc1cc2cc(-c3cccnc3)cc(Cn3cnc4c(N)ncnc43)c2[nH]1 [Example 20, 9-{[2-(aminomethyl)-5-(pyridin-3-yl)-1H-indol-7-yl]methyl}-9H-purin-6-amine]",866
3,"NCc1cc2cc(-c3ccncc3)cc(Cn3cnc4c(N)ncnc43)c2[nH]1 [Example 21, 9-{[2-(aminomethyl)-5-(pyridin-4-yl)-1H-indol-7-yl]methyl}-9H-purin-6-amine]",780
4,"NCc1cc2cc(-c3ccccc3)cc(Cn3cnc4c(N)ncnc43)c2[nH]1 [Example 22, 9-{[2-(aminomethyl)-5-phenyl-1H-indol-7-yl]methyl}-9H-purin-6-amine]",458
5,"NCc1cc2cc(-c3ccc(F)cc3)cc(Cn3cnc4c(N)ncnc43)c2[nH]1 [Example 26, 9-{[2-(aminomethyl)-5-(4-fluorophenyl)-1H-indol-7-yl]methyl}-9H-purin-6-amine]",474
6,"NCc1cc2cc(-c3ccccc3F)cc(Cn3cnc4c(N)ncnc43)c2[nH]1 [Example 27, 9-{[2-(aminomethyl)-5-(2-fluorophenyl)-1H-indol-7-yl]methyl}-9H-purin-6-amine]",1210
7,"COc1ccc(-c2cc(Cn3cnc4c(N)ncnc43)c3[nH]c(CN)cc3c2)cn1 [Example 28, 9-{[2-(aminomethyl)-5-(6-methoxypyridin-3-yl)-1H-indol-7-yl]methyl}-9H-purin-6-amine]",426
8,"NCc1cc2cc(-c3ccc(S(N)(=O)=O)cc3)cc(Cn3cnc4c(N)ncnc43)c2[nH]1 [Example 29, 4-{2-(aminomethyl)-7-[(6-amino-9H-purin-9-yl)methyl]-1H-indol-5-yl}benzenesulfonamide]",252
9,"Cc1ccc(-c2cc(Cn3cnc4c(N)ncnc43)c3[nH]c(CN)cc3c2)cc1 [Example 30, 9-{[2-(aminomethyl)-5-(4-methylphenyl)-1H-indol-7-yl]methyl}-9H-purin-6-amine]",1170
10,"Cc1cccc(-c2cc(Cn3cnc4c(N)ncnc43)c3[nH]c(CN)cc3c2)c1 [Example 31, 9-{[2-(aminomethyl)-5-(3-methylphenyl)-1H-indol-7-yl]methyl}-9H-purin-6-amine]",901
11,"Cc1ccccc1-c1cc(Cn2cnc3c(N)ncnc32)c2[nH]c(CN)cc2c1 [Example 32, 9-{[2-(aminomethyl)-5-(2-methylphenyl)-1H-indol-7-yl]methyl}-9H-purin-6-amine]",3330
12,"NCc1cc2cc(-c3ccc(CO)cc3)cc(Cn3cnc4c(N)ncnc43)c2[nH]1 [Example 33, (4-{2-(aminomethyl)-7-[(6-amino-9H-purin-9-yl)methyl]-1H-indol-5-yl}phenyl)methanol]",528
13,"COc1ccc(-c2cc(Cn3cnc4c(N)ncnc43)c3[nH]c(CN)cc3c2)cc1 [Example 34, 9-{[2-(aminomethyl)-5-(4-methoxyphenyl)-1H-indol-7-yl]methyl}-9H-purin-6-amine]",723
14,"COc1cccc(-c2cc(Cn3cnc4c(N)ncnc43)c3[nH]c(CN)cc3c2)c1 [Example 35, 9-{[2-(aminomethyl)-5-(3-methoxyphenyl)-1H-indol-7-yl]methyl}-9H-purin-6-amine]",1090
15,"COc1ccccc1-c1cc(Cn2cnc3c(N)ncnc32)c2[nH]c(CN)cc2c1 [Example 36, 9-{[2-(aminomethyl)-5-(2-methoxyphenyl)-1H-indol-7-yl]methyl}-9H-purin-6-amine]",2410
16,"CS(=O)(=O)c1ccc(-c2cc(Cn3cnc4c(N)ncnc43)c3[nH]c(CN)cc3c2)cc1 [Example 37, 9-({2-(aminomethyl)-5-[4-(methylsulfonyl)phenyl]-1H-indol-7-yl}methyl)-9H-purin-6-amine]",321
17,"N#Cc1ccc(-c2cc(Cn3cnc4c(N)ncnc43)c3[nH]c(CN)cc3c2)cc1 [Example 38, 4-{2-(aminomethyl)-7-[(6-amino-9H-purin-9-yl)methyl]-1H-indol-5-yl}benzonitrile]",810
18,"N#Cc1cccc(-c2cc(Cn3cnc4c(N)ncnc43)c3[nH]c(CN)cc3c2)c1 [Example 39, 3-{2-(aminomethyl)-7-[(6-amino-9H-purin-9-yl)methyl]-1H-indol-5-yl}benzonitrile]",345
19,"NCc1cc2cc(-c3cccc(C(N)=O)c3)cc(Cn3cnc4c(N)ncnc43)c2[nH]1 [Example 40, 3-{2-(aminomethyl)-7-[(6-amino-9H-purin-9-yl)methyl]-1H-indol-5-yl}benzamide]",425
